Several values for one entry are separate records, joined by “and”; a condition that tells them apart may be missing. Identical values can stand only once. Like-named read-outs stand apart in the source and are kept apart here.
Experiments:
[1] = Cell viability (PI staining) in the dendritic cell activation assay; details: human, U937 cells, %Viability, control printed for each of three test series
[2] = tested on: U937 cells; experiment: as above; details: 200 µg/mL, control printed for each of three test series
[3] = tested on: CD86 on U937 cells; details: for CD86+ FL1 positivity (%): 200 µg/mL, control printed for each of three test series
[4] = tested on: AhR; experiment: XRE reporter assay for AD evaluation (AD cell model); details: for inhibitory effect in the AD cell model, compared in words: 0.5 μM FICZ, XRE-NLuc::HaCaT, not as strong as linalyl acetate; for inhibitory effect in the AD cell model, compared in words / IC50: 24 h; for IC50: Homo sapiens, read-out: IC50 of inhibition of AD (XRE reporter expression)
[5] = tested on: ARE-NLuc::HaCaT
[6] = tested on: ARE-NLuc::HaCaT; remark: listed apart in the source
[7] = tested on: AhR; experiment: AhR mRNA level by qPCR in HaCaT cells; format: cell-based, human; details: FICZ with or without linalyl acetate or linalool, 24 h
[8] = tested on: ARNT; experiment: ARNT mRNA level by qPCR in HaCaT cells; format: cell-based, human; details: FICZ with or without linalyl acetate or linalool, 24 h
Description: Briefly, the total RNA was extracted, and reverse transcribed using SuperPrep II Cell Lysis & RT Kit for qPCR (#SCQ-401, Toyobo, Tokyo, Japan), according to the manufacturer’s instructions. The cDNA obtained was subjected to a quantitative polymerase chain reaction (qPCR) with THUNDERBIRD Next SYBR qPCR Mix (#QPX-201, Toyobo) according to the manufacturer’s protocol using the StepOne Real-Time PCR System (Thermo Fisher Japan, Tokyo, Japan). The expression of each gene obtained using qPCR was normalized to that of glyceraldehyde-3-phosphate dehydrogenase (GAPDH). […] The cycle threshold (Ct) value of GAPDH in each sample was used as an internal control.
Total RNA was then extracted and reverse transcribed to cDNA that was subjected to qPCR using the primer set listed in S2 Table in S1 File. AhR and ARNT expression was normalized to GAPDH expression. Fold induction was calculated as the vehicle set at 1. Values in the graphs represent the mean ± SD of two independent experiments. […] All the Western blots are shown from two (anti-ARNT) or three (anti-AhR and anti-gamma tubulin) independent experiments. […] The intensities are relative to the vehicle set at 1.

[9] = tested on: ARNT; experiment: ARNT protein level by western blotting in HaCaT cells; format: cell-based, human; details: FICZ alone, 24 h
Description: All the Western blots are shown from two (anti-ARNT) or three (anti-AhR and anti-gamma tubulin) independent experiments. […] The intensities are relative to the vehicle set at 1.

[10] = tested on: Artemin; experiment: FICZ-induced Artemin mRNA expression by qPCR in HaCaT cells; format: cell-based; details: Homo sapiens, 24 h, read-out: IC50 of decrease of FICZ-induced Artemin expression
[11] = cited from earlier work
[12] = tested on: HaCaT cells; experiment: RNAseq on treated HaCaT cells analysed by DisGeNET-Metascape; format: cell-based, human; details: authors' reply to reviewer, data not shown
Description: Thank you for your comment. […] To clarify that our conclusion is limited, we have added some words in the revised Discussion section.

[13] = cited from earlier work; remark: listed apart in the source
[14] = tested on: ARE-NLuc::HaCaT; experiment: Cell viability (WST-1) in the keratinocyte activation assay; details: 48 h, mean ± SD of three experiments
[15] = tested on: ARE-NLuc::HaCaT; experiment: Keratinocyte activation assay (ARE reporter assay, OECD TG442D); details: 48 h; positive criteria of TG442D
[16] = tested on: AhR; experiment: AhR protein level by western blotting in HaCaT cells; format: cell-based, human; details: FICZ and linalyl acetate, 24 h
Protocol: Sodium dodecyl sulfate–polyacrylamide gel electrophoresis (SDS–PAGE) and western blotting were performed as described previously. Cell lysates were prepared in lysis buffer [10 mM HEPES-KOH, pH 7.4, 100 mM KCl, 1 mM MgCl2, 1% Triton X-100, and protease inhibitor cocktails (Nacalai)]. After incubation for 10 min on ice, the lysate was clarified by centrifugation at 14,000 × g for 10 min. The supernatants were then subjected to SDS–PAGE on a 7.5% gel (Bio-Rad). The gel was electrotransferred to polyvinylidene fluoride or polyvinylidene difluoride membranes (pore size: 0.45 μm, Merck Group Japan, Tokyo, Japan). The proteins on the membrane were detected by incubation with diluted anti-AhR, anti-ARNT (Santa Cruz Biotechnology, Cosmo Bio Co., LTD, Tokyo, Japan), and anti-γ-tubulin (Sigma, Sigma-Aldrich Japan, Tokyo, Japan) followed by HRP-conjugated anti-mouse immunoglobulin G (Cell Signaling, CST Japan, Tokyo, Japan) using a charge-coupled device camera.
Next, we measured the mRNA and protein expression of AhR and ARNT by qPCR and western blotting, respectively.
Total RNA was then extracted and reverse transcribed to cDNA that was subjected to qPCR using the primer set listed in S2 Table in S1 File. […] Fold induction was calculated as the vehicle set at 1. […] The right-side numbers are experimental numbers. d) Band intensity of each lane was quantified by ImageJ and normalized to […]. […]

[17] = tested on: U937 cells; details: human
[18] = tested on: CD86 on U937 cells; set-up: method as in PMID 23576290; details: cited from earlier work

In the case of `CC(O)C(=O)O` (centres unmarked) [lactic acid], the viability at 48 h, 200 µg/mL ([1]; Experiment 1, 48 h) is reported as 97.4%, the viability at 48 h, 200 µg/mL ([1]; Experiment 2, 48 h) is reported as 96.4% and the “%Viability” value ([2]; Experiment 1, 48 h) is reported as 96.2%. The “%Viability” value ([2]; Experiment 2, 48 h) was 95.4% and 94.4%, the “CD86+ FL1 positivity (%)” value ([3]; Experiment 1, 48 h) was 11.5% and 10.1% and the “CD86+ FL1 positivity (%)” value ([3]; Experiment 2, 48 h) was 8.4% and 12.6% and 11.7%.
In the case of `C=CC(C)(O)CCCC(C)C` (centres unmarked) [DHL, 6,7-Dihydrolinalool], the “inhibitory effect in the AD cell model, compared in words” value [4] is reported as “stronger inhibitory effects than linalool”, the CV70 [5] is reported as 1319 ± 52.3 µM and the “outcome of the keratinocyte activation assay” value [6] is reported as “weakly positive”.
For `O=Cc1c2[nH]c3ccccc3c2cc2[nH]c3ccccc3c12` [FICZ, 6-formylindolo[3,2-b]carbazole], the “AhR mRNA level” value [7] was “did not change”, the “ARNT mRNA level” value [8] was “did not change” and the ARNT protein level [9] was “increased”.
In the case of `C=CC(C)(CCC=C(C)C)OC(C)=O` (centres unmarked) [Linalyl acetate], the IC50 [10] is given as 3.6 µM, the “Key event 4, Local lymph node assay” value [11] is given as “weak positivity” and the “AhR mRNA level” value [7] is given as “did not change”. For the same compound, the IC50 [4] was 519 µM, the XRE reporter expression ([4]; without activation of AhR by FICZ) was “decreased XRE reporter expression” and the “evidence of contact allergy in RNAseq” value [12] was “no evidence of contact allergy”. The patch test [13] was “negativity”, the CV70 [14] was 1466 ± 45.4 µM and the “outcome of the keratinocyte activation assay” value [15] was “weakly positive”. For the same compound, the “reduction of AhR protein level compared with FICZ alone” value [16] was “approximately 30%”, the CV70 [17] was 16 ± 3.8 µg/mL and the “S.I. value of CD86” value [3] was “less than 150”. For the same compound, the “outcome of the dendritic cell activation assay” value [3] was “negative”.
In the case of `C=C(C)C(=O)OCCOC(=O)C(=C)C` [Ethylene glycol dimethacrylate, ethylene glycol dimethacrylate, reference compound], the CV70 [14] is reported as 523 ± 59.0 µM, the CV70 ([14]; listed as EGDMA) is reported as 523 ± 59.0 µM and the “outcome of the keratinocyte activation assay” value [15] is reported as “positive”.
With `C=CC(C)(O)CCC=C(C)C` (centres unmarked) [Linalool] the IC50 ([10]; 5 μM FICZ, qPCR normalized to GAPDH) was 194 µM, the “AhR mRNA level” value [7] was “did not change” and the IC50 [4] was greater than 1000 µM. The “outcome of the dendritic cell activation assay” value [18] was “positive”, the “Patch test (human)” value [13] was 0.2% positive ^##, ^### and the CV70 [14] was greater than 2000 µM. The “outcome of the keratinocyte activation assay” value [15] was “negative”.
In the case of `CCC(C)(O)CCCC(C)C` (centres unmarked) [THL, tetrahydrolinalool], the “inhibitory effect in the AD cell model, compared in words” value [4] is reported as “stronger inhibitory effects than linalool”, the CV70 [5] is reported as 1416 ± 90.6 µM and the “outcome of the keratinocyte activation assay” value [6] is reported as “weakly positive”.
